# According to article PMC7703542 (Proceedings of the National Academy of Sciences of the …, 2020):
# Molecular target: PdF1 γCC (PdF1) (Paracoccus denitrificans, UniProt A1B8N8+A1B8P0)
# Assay: single-molecule rotation assay, Mg-ADP inhibited pauses
# Assay type: biochemical
# Conditions: 1 µM ADP with 1 µM ATP, no ADP-trapping system, 0.1% LDAO
# Chain of PdF1 γCC (PdF1) (A1B8P0 whole entry): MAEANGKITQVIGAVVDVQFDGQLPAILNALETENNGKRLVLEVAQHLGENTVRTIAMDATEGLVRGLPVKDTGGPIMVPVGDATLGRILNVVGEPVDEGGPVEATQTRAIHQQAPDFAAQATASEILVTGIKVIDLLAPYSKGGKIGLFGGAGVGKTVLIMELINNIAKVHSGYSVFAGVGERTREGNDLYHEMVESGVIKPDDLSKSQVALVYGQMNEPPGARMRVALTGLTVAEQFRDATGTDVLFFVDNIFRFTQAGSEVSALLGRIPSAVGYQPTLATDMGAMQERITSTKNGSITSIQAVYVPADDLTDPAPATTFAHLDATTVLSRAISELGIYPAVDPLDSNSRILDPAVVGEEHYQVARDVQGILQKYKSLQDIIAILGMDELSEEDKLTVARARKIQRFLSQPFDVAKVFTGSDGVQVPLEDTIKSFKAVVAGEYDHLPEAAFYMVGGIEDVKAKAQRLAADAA
# Chain of PdF1 γCC (PdF1) (A1B8N8 whole entry): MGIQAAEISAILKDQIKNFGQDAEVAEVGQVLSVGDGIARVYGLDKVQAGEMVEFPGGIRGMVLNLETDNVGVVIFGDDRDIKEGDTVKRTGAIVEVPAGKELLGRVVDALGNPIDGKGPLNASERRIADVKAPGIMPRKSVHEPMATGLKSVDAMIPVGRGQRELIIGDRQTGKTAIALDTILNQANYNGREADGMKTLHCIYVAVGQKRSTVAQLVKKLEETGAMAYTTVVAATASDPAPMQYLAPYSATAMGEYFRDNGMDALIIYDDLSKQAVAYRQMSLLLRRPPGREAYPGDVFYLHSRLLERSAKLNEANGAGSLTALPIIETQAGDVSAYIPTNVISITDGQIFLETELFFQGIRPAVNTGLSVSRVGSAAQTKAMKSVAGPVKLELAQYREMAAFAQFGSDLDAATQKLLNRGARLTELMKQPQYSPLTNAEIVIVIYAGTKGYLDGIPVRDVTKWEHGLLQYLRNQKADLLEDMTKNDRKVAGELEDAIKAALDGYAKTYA
# Chain of PdF1 γCC (PdF1) (A1B8N9 whole entry Q115C/D214C partner): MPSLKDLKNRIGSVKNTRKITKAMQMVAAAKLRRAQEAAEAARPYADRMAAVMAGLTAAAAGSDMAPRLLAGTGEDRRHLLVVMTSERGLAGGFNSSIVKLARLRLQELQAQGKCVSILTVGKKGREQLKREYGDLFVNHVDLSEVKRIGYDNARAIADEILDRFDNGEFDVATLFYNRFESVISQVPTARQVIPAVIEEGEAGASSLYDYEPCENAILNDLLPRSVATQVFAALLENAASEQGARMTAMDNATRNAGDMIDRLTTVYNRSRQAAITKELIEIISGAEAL
# Chain of PdF1 γCC (PdF1) (A1B8N7 whole entry partner): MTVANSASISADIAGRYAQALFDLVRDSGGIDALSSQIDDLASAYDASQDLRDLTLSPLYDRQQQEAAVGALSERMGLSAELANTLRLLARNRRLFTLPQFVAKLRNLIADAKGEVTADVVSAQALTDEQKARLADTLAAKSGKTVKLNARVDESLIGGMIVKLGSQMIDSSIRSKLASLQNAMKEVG
# Chain of PdF1 γCC (PdF1) (A1B8P1 whole entry partner): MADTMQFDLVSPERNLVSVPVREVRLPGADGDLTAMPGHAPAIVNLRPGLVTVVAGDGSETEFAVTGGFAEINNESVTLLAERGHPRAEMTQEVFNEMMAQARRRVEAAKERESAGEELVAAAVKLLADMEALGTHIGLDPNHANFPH
compound,measurement,value
Nc1ncnc2c1ncn2[C@@H]1O[C@H](COP(=O)(O)OP(=O)(O)O)[C@@H](O)[C@H]1O [ADP],"single-molecule rotation assay, Mg-ADP inhibited pauses",supporting the conclusion that they are a result of Mg-ADP inhibition
